Assay results taken from the NIST ThermoML archive (doi:10.1016/j.jct.2017.10.004).
Numbers after ± are expanded uncertainties.

Test: xn = mol fraction of the nth substance listed
Conditions: 100 kPa, Liquid; for electrical conductivity: Alternating current cell with electrodes; for viscosity: Capillary tube (Ostwald / Ubbelohde) method; for mass density: Vibrating tube method

Cn1cc[n+](C)c1.O=S(=O)([N-]S(=O)(=O)C(F)(F)F)C(F)(F)F [1,3-dimethylimidazolium bis((trifluoromethyl)sulfonyl)amide] + O=C1CCCO1
Conditions	electrical conductivity [S/m]	mass density [kg/m3]	viscosity [mPa·s]
298.15 K, x1 = 0.05124	1.13 ± 0.037	1190.03 ± 4.9	2.27 ± 0.09
298.15 K, x1 = 0.09948	1.58 ± 0.048	1240.94 ± 4.8	2.86 ± 0.12
298.15 K, x1 = 0.1551	1.75 ± 0.052	1289.73 ± 4.8	3.61 ± 0.15
298.15 K, x1 = 0.2007	1.77 ± 0.053	1323.77 ± 4.7	4.44 ± 0.18
298.15 K, x1 = 0.2991	1.73 ± 0.052	1383.3 ± 4.7	6.56 ± 0.27
298.15 K, x1 = 0.4002	1.6 ± 0.048	1430.37 ± 4.7	9.39 ± 0.38
298.15 K, x1 = 0.4998	1.47 ± 0.044	1467.09 ± 4.7	12.79 ± 0.52
298.15 K, x1 = 0.6127	1.29 ± 0.039	1500.46 ± 4.7	17.69 ± 0.72
298.15 K, x1 = 0.7009	1.17 ± 0.035	1522 ± 4.7	22.05 ± 0.9
298.15 K, x1 = 0.8002	1.05 ± 0.032	1542.63 ± 4.7	27.52 ± 1.1
298.15 K, x1 = 0.8997	0.905 ± 0.027	1560.16 ± 4.7	33.41 ± 1.4
298.15 K, x1 = 1	0.774 ± 0.023	1575.42 ± 4.7	39.43 ± 1.6
303.15 K, x1 = 0.05124	1.22 ± 0.04	1185.01 ± 4.9	2.08 ± 0.09
303.15 K, x1 = 0.09948	1.72 ± 0.052	1235.89 ± 4.8	2.61 ± 0.11
303.15 K, x1 = 0.1551	1.9 ± 0.057	1284.67 ± 4.8	3.24 ± 0.13
303.15 K, x1 = 0.2007	1.94 ± 0.058	1318.66 ± 4.7	4 ± 0.16
303.15 K, x1 = 0.2991	1.9 ± 0.057	1378.16 ± 4.7	5.81 ± 0.24
303.15 K, x1 = 0.4002	1.76 ± 0.053	1425.2 ± 4.7	8.35 ± 0.34
303.15 K, x1 = 0.4998	1.63 ± 0.049	1461.93 ± 4.7	11.04 ± 0.45
303.15 K, x1 = 0.6127	1.45 ± 0.044	1495.28 ± 4.7	15.09 ± 0.61
303.15 K, x1 = 0.7009	1.32 ± 0.04	1516.83 ± 4.7	18.61 ± 0.76
303.15 K, x1 = 0.8002	1.19 ± 0.036	1537.44 ± 4.7	22.9 ± 0.93
303.15 K, x1 = 0.8997	1.04 ± 0.031	1554.97 ± 4.7	27.66 ± 1.1
303.15 K, x1 = 1	0.915 ± 0.027	1570.25 ± 4.7	32.51 ± 1.3
308.15 K, x1 = 0.05124	1.32 ± 0.043	1180.03 ± 4.9	1.85 ± 0.08
308.15 K, x1 = 0.09948	1.85 ± 0.056	1230.85 ± 4.8	2.39 ± 0.1
308.15 K, x1 = 0.1551	2.06 ± 0.062	1279.57 ± 4.8	3.02 ± 0.12
308.15 K, x1 = 0.2007	2.09 ± 0.063	1313.53 ± 4.7	3.62 ± 0.15
308.15 K, x1 = 0.2991	2.07 ± 0.062	1372.98 ± 4.7	5.23 ± 0.21
308.15 K, x1 = 0.4002	1.93 ± 0.058	1419.99 ± 4.7	7.3 ± 0.3
308.15 K, x1 = 0.4998	1.79 ± 0.054	1456.71 ± 4.7	9.7 ± 0.4
308.15 K, x1 = 0.6127	1.61 ± 0.048	1490.05 ± 4.7	12.98 ± 0.53
308.15 K, x1 = 0.7009	1.47 ± 0.044	1511.6 ± 4.7	16 ± 0.65
308.15 K, x1 = 0.8002	1.34 ± 0.04	1532.21 ± 4.7	19.53 ± 0.79
308.15 K, x1 = 0.8997	1.18 ± 0.035	1549.75 ± 4.7	23.46 ± 0.95
308.15 K, x1 = 1	1.06 ± 0.032	1565.01 ± 4.7	27.47 ± 1.1
313.15 K, x1 = 0.05124	1.4 ± 0.046	1175.06 ± 4.9	1.71 ± 0.07
313.15 K, x1 = 0.09948	1.98 ± 0.06	1225.8 ± 4.8	2.2 ± 0.09
313.15 K, x1 = 0.1551	2.19 ± 0.066	1274.45 ± 4.8	2.77 ± 0.11
313.15 K, x1 = 0.2007	2.25 ± 0.068	1308.37 ± 4.7	3.3 ± 0.14
313.15 K, x1 = 0.2991	2.23 ± 0.067	1367.77 ± 4.7	4.7 ± 0.19
313.15 K, x1 = 0.4002	2.09 ± 0.063	1414.76 ± 4.7	6.5 ± 0.27
313.15 K, x1 = 0.4998	1.95 ± 0.059	1451.46 ± 4.7	8.6 ± 0.35
313.15 K, x1 = 0.6127	1.76 ± 0.053	1484.8 ± 4.7	11.46 ± 0.47
313.15 K, x1 = 0.7009	1.61 ± 0.048	1506.34 ± 4.7	13.89 ± 0.56
313.15 K, x1 = 0.8002	1.48 ± 0.045	1526.95 ± 4.7	16.86 ± 0.68
313.15 K, x1 = 0.8997	1.32 ± 0.04	1544.49 ± 4.7	20.08 ± 0.82
313.15 K, x1 = 1	1.2 ± 0.036	1559.73 ± 4.7	23.43 ± 0.95
318.15 K, x1 = 0.05124	1.5 ± 0.049	1170.08 ± 4.9	1.62 ± 0.07
318.15 K, x1 = 0.09948	2.12 ± 0.065	1220.75 ± 4.8	2.04 ± 0.08
318.15 K, x1 = 0.1551	2.35 ± 0.071	1269.35 ± 4.8	2.57 ± 0.11
318.15 K, x1 = 0.2007	2.42 ± 0.073	1303.25 ± 4.7	3.03 ± 0.12
318.15 K, x1 = 0.2991	2.4 ± 0.072	1362.59 ± 4.7	4.27 ± 0.17
318.15 K, x1 = 0.4002	2.25 ± 0.067	1409.55 ± 4.7	5.81 ± 0.24
318.15 K, x1 = 0.4998	2.12 ± 0.064	1446.23 ± 4.7	7.64 ± 0.31
318.15 K, x1 = 0.6127	1.92 ± 0.058	1479.57 ± 4.7	10.05 ± 0.41
318.15 K, x1 = 0.7009	1.77 ± 0.053	1501.11 ± 4.7	12.18 ± 0.5
318.15 K, x1 = 0.8002	1.65 ± 0.049	1521.73 ± 4.7	14.75 ± 0.6
318.15 K, x1 = 0.8997	1.49 ± 0.045	1539.27 ± 4.7	17.45 ± 0.71
318.15 K, x1 = 1	1.35 ± 0.041	1554.49 ± 4.7	20.25 ± 0.82
323.15 K, x1 = 0.05124	1.59 ± 0.052	1165.1 ± 4.9	1.52 ± 0.06
323.15 K, x1 = 0.09948	2.25 ± 0.069	1215.71 ± 4.8	1.89 ± 0.08
323.15 K, x1 = 0.1551	2.51 ± 0.076	1264.27 ± 4.8	2.39 ± 0.1
323.15 K, x1 = 0.2007	2.59 ± 0.078	1298.14 ± 4.7	2.79 ± 0.11
323.15 K, x1 = 0.2991	2.59 ± 0.078	1357.45 ± 4.7	3.89 ± 0.16
323.15 K, x1 = 0.4002	2.45 ± 0.074	1404.4 ± 4.7	5.3 ± 0.22
323.15 K, x1 = 0.4998	2.31 ± 0.069	1441.07 ± 4.7	6.82 ± 0.28
323.15 K, x1 = 0.6127	2.11 ± 0.063	1474.41 ± 4.7	8.92 ± 0.36
323.15 K, x1 = 0.7009	1.96 ± 0.059	1495.96 ± 4.7	10.71 ± 0.44
323.15 K, x1 = 0.8002	1.82 ± 0.055	1516.59 ± 4.7	12.9 ± 0.52
323.15 K, x1 = 0.8997	1.67 ± 0.05	1534.13 ± 4.7	15.17 ± 0.62
323.15 K, x1 = 1	1.51 ± 0.045	1549.34 ± 4.7	17.72 ± 0.72
